Data on 20 molecules can be found in patent US12577206B2 (BRISTOL-MYERS SQUIBB COMPANY, priority 2020, dated 2026).

Where only a bound is given, the exact number is not on record here.

The target of one assay is T1, human FPR1 (Homo sapiens, UniProt P21462).
T1 sequence (P21462 1-350): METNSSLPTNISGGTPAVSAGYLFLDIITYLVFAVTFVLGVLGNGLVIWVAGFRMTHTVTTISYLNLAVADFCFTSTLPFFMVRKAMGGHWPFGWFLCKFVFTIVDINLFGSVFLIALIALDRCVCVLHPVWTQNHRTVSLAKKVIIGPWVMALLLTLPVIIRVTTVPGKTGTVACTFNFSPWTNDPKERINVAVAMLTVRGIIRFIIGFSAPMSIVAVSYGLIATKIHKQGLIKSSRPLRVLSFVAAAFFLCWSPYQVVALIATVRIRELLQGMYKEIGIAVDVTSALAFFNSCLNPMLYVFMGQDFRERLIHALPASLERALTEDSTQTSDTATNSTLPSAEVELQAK
The assay is described as follows: FPR1 cyclic adenosine monophosphate (cAMP) assay. Type of assay: cell-based. The settings on record: CHO cells overexpressing human FPR1; forskolin 10 μM; inhibition of cAMP production; HTRF; read-out: hFPR1 cAMP2 EC50. Summed up:
(§1)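 Gi-coupled activity is read as suppression of forskolin-stimulated cAMP (10 μM final for FPR1, 5 μM final for FPR2; IBMX 200 μM final) in recombinant CHO cells, 30 min incubation at rt, HTRF detection.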

Another assay deals with T2, human FPR2 (Homo sapiens, UniProt P25090).
T2 sequence (P25090 1-351): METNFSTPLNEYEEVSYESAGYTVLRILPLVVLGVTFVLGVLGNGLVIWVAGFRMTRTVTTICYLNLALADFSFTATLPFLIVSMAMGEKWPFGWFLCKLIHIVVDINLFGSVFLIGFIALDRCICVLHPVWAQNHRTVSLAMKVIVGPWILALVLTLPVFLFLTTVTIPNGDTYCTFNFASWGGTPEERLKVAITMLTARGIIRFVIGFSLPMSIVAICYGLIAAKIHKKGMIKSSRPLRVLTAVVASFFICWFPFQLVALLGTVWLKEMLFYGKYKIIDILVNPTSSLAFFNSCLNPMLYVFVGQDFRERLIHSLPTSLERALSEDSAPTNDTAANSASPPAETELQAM
The assay is described as follows: FPR2 cyclic adenosine monophosphate (cAMP) assay. Type of assay: cell-based. The settings on record: CHO cells overexpressing human FPR2; forskolin 5 μM; inhibition of cAMP production; HTRF; read-out: hFPR2 cAMP2 EC50. Summed up: as §1

On to `COc1cc(-n2c(=O)c(NC(=O)c3ccc(OC(F)F)cc3)c(-c3c(F)cc(OC)cc3F)n2C)nc(C(C)(C)O)c1` [Example 89, N-[5-(2,6-difluoro-4-methoxyphenyl)-2-[6-(2-hydroxypropan-2-yl)-4-methoxypyridin-2-yl]-1-methyl-3-oxo-2,3-dihydro-1H-pyrazol-4-yl]-4-(difluoromethoxy)benzamide], for which the EC50 is 900 nM at human FPR1 and 3 nM on human FPR2.
The corresponding values for `COc1cc(F)c(-c2c(NC(=O)c3ccc(OC(F)(F)F)cc3)c(=O)n(-c3ccccc3)n2C)c(F)c1` [Example 4, N-[5-(2,6-difluoro-4-methoxyphenyl)-1-methyl-3-oxo-2-phenyl-2,3-dihydro-1H-pyrazol-4-yl]-4-(trifluoromethoxy)benzamide] are 1300 nM and 8 nM.
In the case of `COc1cc(F)c(-c2c(NC(=O)c3ccc(OC(F)F)cc3)c(=O)n(-c3nc(NC[C@H](C)O)ccc3C(F)(F)F)n2C)c(F)c1` [Example 272, N-[5-(2,6-difluoro-4-methoxyphenyl)-2-(6-{[(2S)-2-hydroxypropyl]amino}-3-(trifluoromethyl)pyridin-2-yl)-1-methyl-3-oxo-2,3-dihydro-1H-pyrazol-4-yl]-4-(difluoromethoxy)benzamide], the EC50 was more than 10000 nM on human FPR1 and 1 nM at human FPR2.
The corresponding values for `COc1cc(F)c(-c2c(NC(=O)c3ccc(OC(F)F)cc3)c(=O)n(-c3cccc(NC(=O)C(C)(C)C)n3)n2C)c(F)c1` [Example 84, N-[5-(2,6-difluoro-4-methoxyphenyl)-2-[6-(2,2-dimethylpropanamido)pyridin-2-yl]-1-methyl-3-oxo-2,3-dihydro-1H-pyrazol-4-yl]-4-(difluoromethoxy)benzamide] are 82 nM and 5 nM.
The matching figures for `COc1cc(F)c(-c2c(NC(=O)c3ccc(OC(F)F)cc3)c(=O)n(-c3cccc(OC)c3C#N)n2C)c(F)c1` [Example 184, N-[2-(2-cyano-3-methoxyphenyl)-5-(2,6-difluoro-4-methoxyphenyl)-1-methyl-3-oxo-2,3-dihydro-1H-pyrazol-4-yl]-4-(difluoromethoxy)benzamide]: more than 10000 nM and 8 nM.
With `COc1cc(F)c(-c2c(NC(=O)c3ccc(OC(F)(F)F)cc3)c(=O)n(-c3cccc(-c4ccccc4)n3)n2C)c(F)c1` [Example 73, N-[5-(2,6-difluoro-4-methoxyphenyl)-1-methyl-3-oxo-2-(6-phenylpyridin-2-yl)-2,3-dihydro-1H-pyrazol-4-yl]-4-(trifluoromethoxy)benzamide], the figures for the EC50 at human FPR1 and at human FPR2 were 950 nM and 13 nM, respectively.
The matching figures for `COc1cc(F)c(-c2c(NC(=O)c3ccc(OC(F)F)cc3)c(=O)n(-c3cc(OC)ccc3Cl)n2C)c(F)c1` [Example 198, N-[2-(2-chloro-5-methoxyphenyl)-5-(2,6-difluoro-4-methoxyphenyl)-1-methyl-3-oxo-2,3-dihydro-1H-pyrazol-4-yl]-4-(difluoromethoxy)benzamide]: more than 10000 nM and 13 nM.
The corresponding values for `COc1cc(F)c(-c2c(NC(=O)c3ccc(OC(F)F)cc3)c(=O)n(-c3nc(C(F)(F)F)ccc3N(C)CCO)n2C)c(F)c1` [Example 375, N-(5-(2,6-Difluoro-4-methoxyphenyl)-2-(3-((2-hydroxyethyl)(methyl)amino)-6-(trifluoromethyl)pyridin-2-yl)-1-methyl-3-oxo-2,3-dihydro-1H-pyrazol-4-yl)-4-(difluoromethoxy)benzamide] are more than 10000 nM and 3 nM.
As for `COc1cc(F)c(-c2c(NC(=O)c3ccc(OC(F)F)cc3)c(=O)n(-c3nc(N4CCN(S(C)(=O)=O)CC4)ccc3Cl)n2C)c(F)c1` [Example 247, N-{2-[3-chloro-6-(4-methanesulfonylpiperazin-1-yl)pyridin-2-yl]-5-(2,6-difluoro-4-methoxyphenyl)-1-methyl-3-oxo-2,3-dihydro-1H-pyrazol-4-yl}-4-(difluoromethoxy)benzamide], the EC50 was determined as 630 nM on human FPR1 and 5 nM at human FPR2.
The matching figures for `COc1ccnc(-n2c(=O)c(NC(=O)c3ccc(OC(F)F)cc3)c(-c3c(F)cc(OC)cc3F)n2C)c1` [Example 59, N-[5-(2,6-difluoro-4-methoxyphenyl)-2-(4-methoxypyridin-2-yl)-1-methyl-3-oxo-2,3-dihydro-1H-pyrazol-4-yl]-4-(difluoromethoxy)benzamide]: more than 10000 nM and 8 nM.
The matching figures for `COc1cc(F)c(-c2c(NC(=O)c3ccc(OC(F)F)cc3)c(=O)n(-c3cccc(CN(C)C)n3)n2C)c(F)c1` [Example 204, N-[5-(2,6-difluoro-4-methoxyphenyl)-2-{6-[(dimethylamino)methyl]pyridin-2-yl}-1-methyl-3-oxo-2,3-dihydro-1H-pyrazol-4-yl]-4-(difluoromethoxy)benzamide]: more than 10000 nM and 15 nM.
Turning to `COc1cc(OCC(F)(F)F)nc(-n2c(=O)c(NC(=O)c3ccc(OC(F)F)cc3)c(-c3c(F)cc(OC)cc3F)n2C)c1` [Example 389, N-(5-(2,6-Difluoro-4-methoxyphenyl)-2-(4-methoxy-6-(2,2,2-trifluoroethoxy)pyridin-2-yl)-1-methyl-3-oxo-2,3-dihydro-1H-pyrazol-4-yl)-4-(difluoromethoxy)benzamide], the EC50 on human FPR1 stood at 4500 nM; on human FPR2, 6 nM.
For the molecule `CCc1ccc(N2CCN(C)CC2)nc1-n1c(=O)c(NC(=O)c2ccc(OC(F)F)cc2)c(-c2c(F)cc(OC)cc2F)n1C` [Example 244, N-[5-(2,6-difluoro-4-methoxyphenyl)-2-[3-ethyl-6-(4-methylpiperazin-1-yl)pyridin-2-yl]-1-methyl-3-oxo-2,3-dihydro-1H-pyrazol-4-yl]-4-(difluoromethoxy)benzamide], the EC50 at human FPR1 was more than 10000 nM; at human FPR2 it was 35 nM.
The matching figures for `COc1cc(F)c(-c2c(NC(=O)c3ccc(OC(F)F)cc3)c(=O)n(-c3nc(N4CC5(CC(O)C5)C4)ccc3Cl)n2C)c(F)c1` [Example 299, N-[2-(3-chloro-6-{6-hydroxy-2-azaspiro[3.3]heptan-2-yl}pyridin-2-yl)-5-(2,6-difluoro-4-methoxyphenyl)-1-methyl-3-oxo-2,3-dihydro-1H-pyrazol-4-yl]-4-(difluoromethoxy)benzamide]: more than 5000 nM and 8 nM.
The matching figures for `COc1cc(C2CCCN(C)C2)nc(-n2c(=O)c(NC(=O)c3ccc(OC(F)F)cc3)c(-c3c(F)cc(OC)cc3F)n2C)c1` (stereo not shown) [Example 342, N-(5-(2,6-Difluoro-4-methoxyphenyl)-2-(4-methoxy-6-(1-methylpiperidin-3-yl)pyridin-2-yl)-1-methyl-3-oxo-2,3-dihydro-1H-pyrazol-4-yl)-4-(difluoromethoxy)benzamide]: more than 10000 nM and 2 nM.
The matching figures for `COc1cc(F)c(-c2c(NC(=O)c3ccc(OC(F)(F)F)cc3)c(=O)n(-c3cccc(C(F)(F)F)n3)n2C)c(F)c1` [Example 155, N-[5-(2,6-difluoro-4-methoxyphenyl)-1-methyl-3-oxo-2-[6-(trifluoromethyl)pyridin-2-yl]-2,3-dihydro-1H-pyrazol-4-yl]-4-(trifluoromethoxy)benzamide]: 2200 nM and 9 nM.
On to `COc1cc(F)c(-c2c(NC(=O)c3ccc(OC(F)F)cc3)c(=O)n(-c3ccc(C#N)cn3)n2C)c(F)c1` [Example 54, N-[2-(5-cyanopyridin-2-yl)-5-(2,6-difluoro-4-methoxyphenyl)-1-methyl-3-oxo-2,3-dihydro-1H-pyrazol-4-yl]-4-(difluoromethoxy)benzamide], for which the values for the EC50 on human FPR1 and at human FPR2 were 3300 nM and 19 nM, respectively.
The corresponding values for `COc1cc(F)c(-c2c(NC(=O)c3ccc(OC(F)F)cc3)c(=O)n(-c3nc(NC[C@@H](C)O)ccc3C(F)(F)F)n2C)c(F)c1` [Example 273] are more than 5000 nM and 3 nM.
The corresponding values for `COc1cc(F)c(-c2c(NC(=O)c3ccc(OC(F)F)cc3)c(=O)n(-c3cc(C#N)cc(C(C)C)c3)n2C)c(F)c1` [Example 119, N-{2-[3-cyano-5-(propan-2-yl)phenyl]-5-(2,6-difluoro-4-methoxyphenyl)-1-methyl-3-oxo-2,3-dihydro-1H-pyrazol-4-yl}-4-(difluoromethoxy)benzamide] are 65 nM and 8 nM.
The corresponding values for `CCc1cccc(-n2c(=O)c(NC(=O)c3ccc(OC(F)F)cc3)c(-c3c(F)cc(OC)cc3F)n2C)n1` [Example 163, N-[5-(2,6-difluoro-4-methoxyphenyl)-2-(6-ethylpyridin-2-yl)-1-methyl-3-oxo-2,3-dihydro-1H-pyrazol-4-yl]-4-(difluoromethoxy)benzamide] are more than 10000 nM and 4 nM.
